A short description of data set [1]: Hygroscopicity (water absorbed). The data set is classed as physicochemical.
A short description of data set [2]: Chemical stability on storage at 25° C., 60% relative humidity (impurity concentrations). The conditions noted are these: for Lactone impurity / M-2 impurity / Total impurities / Total impurities, number of peaks / Change of concentration of impurity M-2 relative to the initial concentration: 25° C.; for Lactone impurity / M-2 impurity / Total impurities / Total impurities, number of peaks: 60% RH; for Increase in the concentration of rosuvastatin lactone: after one month storage; for Change of concentration of impurity M-2 relative to the initial concentration: one month, 60% relative humidity. The data set is classed as physicochemical. The method, then:
Chemical stability of amorphous and crystalline Form I rosuvastatin zinc salts (2:1) has been determined by challenging said substances at the storage condition of 25° C., 60% relative humidity.

Setting [3] is: listed as amorphous rosuvastatin zinc salt (2:1).

Structures are written as SMILES. Structures can show the parent of a compound that is named as a salt.

Consider two molecules from patent US9023838B2, “Crystalline form I rosuvastatin zinc salt” (Egis Gyogyszergyar Nyilvanosan Muekoedoe, priority 2009, dated 2015).

`CC(C)c1nc(N(C)S(C)(=O)=O)nc(-c2ccc(F)cc2)c1/C=C/[C@@H](O)C[C@@H](O)CC(=O)O` [Amorphous, 7-[4-(4-fluorophenyl)-6-isopropyl-2-(methanesulfonyl-methyl-amino)-pyrimidin-S-yl]-(3R,5S)-dihydroxy-hept-6-enoic acid zinc salt (2:1), reference compound]: in data set [1] (setting [3]), the “Amount of water absorbed” value turned out to be 1.88 % by weight. Also, in data set [2] (1 month), the Lactone impurity was determined as 0.51%; the M-2 impurity is recorded as 0.10%; the Total impurities is 0.77%; the “Total impurities, number of peaks” value is recorded as “(6 peaks)”. For the same molecule, in data set [2] (Initial), the Lactone impurity worked out at 0.10%; the M-2 impurity is 0.03%; the Total impurities amounted to 0.38%; the “Total impurities, number of peaks” value was “(7 peaks)”. For the same molecule, the “Increase in the concentration of rosuvastatin lactone” value in data set [2] (setting [3]) is “five-fold increase”. The “Change of concentration of impurity M-2 relative to the initial concentration” value in data set [2] (listed as amorphous form of rosuvastatin zinc salt) was “three-fold of the initial concentration”.
`CC(C)c1nc(N(C)S(C)(=O)=O)nc(-c2ccc(F)cc2)c1/C=C/[C@@H](O)C[C@@H](O)CC(=O)O` [Form I, 7-[4-(4-fluorophenyl)-6-isopropyl-2-(methanesulfonyl-methyl-amino)-pyrimidin-5-yl]-(3R,5S)-dihydroxy-hept-6-enoic acid zinc salt (2:1)]: in data set [1] (listed as crystalline Form I rosuvastatin zinc salt (2:1)), the “Amount of water absorbed” value was 0.24 % by weight. Moreover, in data set [2] (1 month), the Lactone impurity is on record as 0.32%; the M-2 impurity turned out to be 0.08%; the Total impurities is 0.49%; the “Total impurities, number of peaks” value was “(3 peaks)”. For the same molecule, in data set [2] (Initial), the Lactone impurity is 0.13%; the M-2 impurity was determined as 0.07%; the Total impurities worked out at 0.28%; the “Total impurities, number of peaks” value was “(3 peaks)”. Further, the “Increase in the concentration of rosuvastatin lactone” value in data set [2] (listed as crystalline Form I of rosuvastatin zinc salt (2:1)) is “much less prone to form lactone of rosuvastatin”. For the same molecule, the “Total amount of the impurities and number of the individual impurities during storage, compared with the amorphous form” value in data set [2] (during storage) is on record as “significantly lower”. Further, the “Change of concentration of impurity M-2 relative to the initial concentration” value in data set [2] (listed as crystalline Form I substance) was “practically unchanged”.
